# What was measured:
# [1] = tested on: human breast cancer LM2-4H2N cells; test: Breast cancer orthotopic implantation / resection survival model; type: in vivo, SCID-Beige mice; conditions: post-surgery adjuvant, 25 mg/kg daily oral gavage five times/week
# Experimental: Cohorts of N=12 athymic mice bearing human PCa PC3-M cell orthotopic implants (a), or of N=5 non-tumor bearing athymic mice (b), were treated with KBU2046 incorporated into chow, and resultant lung metastasis (a) or plasma KBU2046 concentration (b) measured. Values are the mean±SEM. The relationship between dose and metastasis was evaluated by two-sided ANOVA (a). FIG. 2c a comprehensive characterization of KBU2046 pharmacokinetics. CD1 mice were dosed with 100 mg KBU2046/kg via oral gavage or intravenous injection (iv), and blood collected at the indicated time points (data from mice dosed at 25 mg/kg are in FIG. 12, and corroborate 100 mg/kg findings). For each route and time point, N=3 mice were sampled. Individual data points are the resultant plasma concentrations from individual mice, and are the mean of N=2 measurements. The dotted horizontal line denotes a concentration of 24 nM, which was the concentration of KBU2046 measured in the blood of mice whose metastasis were suppressed by 92% (a-b). […] Mice were orthotopically implanted with human breast cancer LM2-4H2N cells, the resultant primary tumors resected, and adjuvant treatment begun with KBU2046 by daily oral gavage five times/week. The survival of N=6 mice receiving vehicle was compared to that of N=6 mice receiving 25 mg/kg KBU2046 by the log rank (Mantel-Cox) test.
# Breast cancer: orthotopic implantation. […]
# [2] = tested on: phosphorylation of p38 MAPK or of HSP27; test: Downstream phosphorylation of p38 MAPK and HSP27 in cells (Western blot); type: cell-based, human; conditions: PC3-M cells, 50 μM, 24 hours, then TGFβ
# Experimental: (§1) FIG. 16a is a depiction of established MKK4 pathway regulating human PCa cell metastasis. […] Values are the mean±SD (of N=2 replicates) increase in melting temperature (ΔTm) of purified recombinant MKK4 induced by the indicated concentrations of KBU2046 or genistein. […] The indicated concentrations of KBU2046 were added to recombinant activated MKK4, and its ability to phosphorylate kinase dead p38a MAPK (K53A) was measured by Western blot for total (p38 MAPK) and phosphorylated (pp38 MAPK) forms of p38 MAPK. […] PC3-M cells were pre-treated for 24 hours with 50 μM KBU2046 or genistein, as indicated, then with TGFβ, and Western blot performed. These findings are from a single experiment, with similar findings in identical separate experiments, repeated at least once.
# panel of 284 kinases = test: KinaseProfiler radiometric assay platform (Millipore); type: biochemical; conditions: competition with ATP
# Description: Kinase assay system #3. KinaseProfiler™ and PhosphataseProfiler™ assay platforms (Millipore). This platform is radiometric-based (considered gold standard). It measures competition with respect to ATP for kinases and substrate protein for phosphatases. Most proteins were expressed via an insect-based system, and it evaluates a panel of 284 kinases and 20 phosphatases. […] Important negative findings include: MKK4, MKK6, p38 MAPK, MAPKAPK2, RAF1, ERK, MEK1, JNK1, 2 and 3, and numerous other MAPK cascade-associated kinases.
# MKK4 = biological target: T1, MKK4 (Homo sapiens, UniProt P45985, S257E/T261E); test: MKK4 in vitro kinase assay; type: biochemical; conditions: phosphorylation of kinase dead p38a MAPK
# T1 sequence (P45985 37-399 S257E/T261E): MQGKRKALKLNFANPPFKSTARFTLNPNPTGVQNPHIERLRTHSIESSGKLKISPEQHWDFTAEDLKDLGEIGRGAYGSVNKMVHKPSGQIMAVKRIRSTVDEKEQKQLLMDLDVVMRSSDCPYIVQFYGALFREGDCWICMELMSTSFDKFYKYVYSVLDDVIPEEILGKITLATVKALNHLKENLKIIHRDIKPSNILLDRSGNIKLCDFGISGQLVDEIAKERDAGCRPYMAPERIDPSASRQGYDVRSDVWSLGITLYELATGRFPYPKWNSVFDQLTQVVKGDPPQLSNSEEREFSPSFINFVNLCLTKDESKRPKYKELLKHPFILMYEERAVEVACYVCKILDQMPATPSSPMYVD
# Experimental: as §1
# In Vitro Kinase Assays. MEK4/MKK4/MAP2K4 in vitro kinase assay was performed as described (Krishna, S. N. et al., PLoS One 8, e81504 (2013)). HSP90β/CDC37 heterocomplex kinase assays with RAF1, SGK3 and MAP3K6 assays incubated indicated proteins in 20 mM MOPS, pH 7.2, 25 mM β-glycerol phosphate, 5 mM EGTA, 1 mM sodium orthovanadate, 1 mM dithiothreitol, 0.25 mM ATP and 37.5 mM MgCl2 at 30° C. for the indicated times.
structure (smiles),measurement,setting,value
"O=C1c2ccccc2OCC1c1ccc(F)cc1 (racemic) [KBU2046, (±)-3(4-fluorophenyl)chroman-4-one]",survival,[1],significantly prolonged the survival
same,inhibition of downstream phosphorylation of p38 MAPK or HSP27,[2],did not inhibit downstream phosphorylation of p38 MAPK or of HSP27
same,inhibition of kinase activity,panel of 284 kinases,no evidence that KBU2046 inhibits kinase activity
same,inhibition of MKK4 kinase activity,MKK4,does not inhibit MKK4

# Source: patent US20210293825A1, “METHODS FOR PRECISION THERAPEUTIC TARGETING OF HUMAN CANCER CELL MOTILITY AND KITS THEREOF” (UNITED STATES GOVERNMENT AS REPRESENTED BY THE DEPARTMENT …, priority 2018, published 2021)
